In patent US20260176320A1, “MODULATORS OF G-PROTEIN COUPLED RECEPTORS” (priority 2018, published 2026):
Like-named read-outs stand apart in the source and are kept apart here.

How the values were obtained:
[1] = molecular target: GLP-1R (Homo sapiens, UniProt P43220); assay: HitHunter cAMP assay (GLP-1R); type: cell-based; settings: cAMP; for Emax: read-out: (Emax) GLP-1R
Procedure: (§1) Suspension cells were harvested and resuspended in 1×HBSS (+10 mM HEPES, 625 μM IBMX, 0.2% BSA) according to the following procedure: 5 μL of 2× cell suspension+1× antibody were added to each well, where the optimal cell density was 10,000 cells per well in a low volume 384-well plate. Agonist serial dilutions in a separate 384 well dilution plate in a 22-point series of 2× dilutions of agonist in DMSO were performed as follows. 80 μL of the highest concentration of Agonist/DMSO was added to well No. 1. 40 μL was removed from well No. 1 and added it to well No. 2, followed by gentle mixing. […] This process was repeated until well No. 22. Additional serial dilutions for additional agonists were set up in a similar manner. 50 nL of each 2× agonist serial dilution was added in duplicate to the designated agonist rows of the assay plate using the Labcyte ECHO. Assay plate was incubated for 30 minutes at room temperature. Following agonist incubation, 5 μL of cAMP Antibody Reagent was added to all wells. […] Plates were spun down briefly. Assay plate was incubated for 1 hour at room temperature in the dark for the immunocompetition reaction to occur. […] Plates were spun down briefly. Assay plate was incubated O/N at room temperature in the dark. Samples were read on Tecan i-control plate reader using luminescence mode with 300 ms integration time. Data analysis was performed using GraphPad Prism.

[2] = molecular target: T1, GIP-R (Homo sapiens, UniProt P48546); assay: HitHunter cAMP assay (GIP-R); type: cell-based; settings: Table 3A; cAMP; read-out: (Emax) GIP-R
T1 sequence (P48546 22-466): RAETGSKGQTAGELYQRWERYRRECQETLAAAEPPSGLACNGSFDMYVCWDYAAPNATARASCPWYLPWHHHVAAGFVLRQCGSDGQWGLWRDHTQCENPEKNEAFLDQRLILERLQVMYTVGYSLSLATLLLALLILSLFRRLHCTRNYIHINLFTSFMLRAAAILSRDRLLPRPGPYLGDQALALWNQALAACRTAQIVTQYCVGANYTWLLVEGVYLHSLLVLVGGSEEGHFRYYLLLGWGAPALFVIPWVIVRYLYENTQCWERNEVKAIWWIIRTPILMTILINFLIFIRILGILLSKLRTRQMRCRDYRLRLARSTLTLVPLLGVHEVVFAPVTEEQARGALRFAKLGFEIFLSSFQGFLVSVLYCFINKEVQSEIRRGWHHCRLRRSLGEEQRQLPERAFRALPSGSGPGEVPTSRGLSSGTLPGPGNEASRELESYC
Procedure: as §1

[3] = Table 3A, read-out: EC50 GLP-1R/nM

Sequence of GLP-1R (P43220 24-463): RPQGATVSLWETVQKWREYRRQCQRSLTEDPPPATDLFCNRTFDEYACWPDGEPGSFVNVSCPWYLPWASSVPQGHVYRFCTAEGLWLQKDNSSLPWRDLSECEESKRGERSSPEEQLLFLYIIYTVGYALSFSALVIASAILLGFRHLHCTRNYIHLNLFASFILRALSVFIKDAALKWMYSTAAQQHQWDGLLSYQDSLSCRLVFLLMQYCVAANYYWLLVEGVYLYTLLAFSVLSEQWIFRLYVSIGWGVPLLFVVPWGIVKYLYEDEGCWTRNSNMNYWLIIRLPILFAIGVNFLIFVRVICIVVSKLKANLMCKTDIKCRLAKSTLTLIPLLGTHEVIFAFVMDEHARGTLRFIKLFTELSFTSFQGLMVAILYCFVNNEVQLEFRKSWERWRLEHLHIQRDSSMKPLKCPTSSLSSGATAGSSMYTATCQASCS

With `CCCCCCCCCCCCCCCC(=O)N[C@@H](CCC(=O)NCCCC[C@H](NC(=O)[C@H](CO)NC(=O)[C@@H]1CCCN1C(=O)[C@@H]1CCCN1C(=O)[C@@H]1CCCN1C(=O)[C@H](C)NC(=O)CNC(=O)[C@H](CO)NC(=O)[C@H](CO)NC(=O)[C@@H]1CCCN1C(=O)CNC(=O)CNC(=O)[C@H](C)NC(=O)[C@H](CC(C)C)NC(=O)[C@H](CC(C)C)NC(=O)[C@H](Cc1c[nH]c2ccccc12)NC(=O)[C@H](CC(N)=O)NC(=O)[C@@H](NC(=O)[C@H](Cc1ccccc1)NC(=O)[C@H](CCC(=O)O)NC(=O)C(C)(C)NC(=O)[C@H](C)NC(=O)[C@H](C)NC(=O)[C@H](CCC(N)=O)NC(=O)[C@H](CCCCN)NC(=O)[C@H](CC(=O)O)NC(=O)[C@H](CC(C)C)NC(=O)[C@H](Cc1ccc(O)cc1)NC(=O)[C@@H](NC(=O)[C@H](CO)NC(=O)[C@H](Cc1ccc(O)cc1)NC(=O)[C@H](CC(=O)O)NC(=O)[C@H](CO)NC(=O)[C@@H](NC(=O)[C@H](Cc1ccccc1)NC(=O)[C@@H](NC(=O)CNC(=O)[C@H](CCC(=O)O)NC(=O)CSCC(=O)NCCN1C(=O)CC(C)(C(C)C)C1=O)[C@@H](C)O)[C@@H](C)O)[C@@H](C)CC)C(C)C)C(N)=O)C(=O)O` (mixture of isomers) [Compound 101] the EC50 ([1]; EC50 GLP-1R/nM, Table 3) was 10 to 100 nM, the EC50 ([1]; EC50 GLP-1R/nM, Table 3A) was 10 to 100 nM and the Emax ([1]; Table 3) was 92%. The Emax ([1]; Table 3A) was 92%.

`CCCCCCCCCCCCCCCC(=O)N[C@@H](CCC(=O)NCCCC[C@H](NC(=O)[C@H](CO)NC(=O)[C@@H]1CCCN1C(=O)[C@@H]1CCCN1C(=O)[C@@H]1CCCN1C(=O)[C@H](C)NC(=O)CNC(=O)[C@H](CO)NC(=O)[C@H](CO)NC(=O)[C@@H]1CCCN1C(=O)CNC(=O)CNC(=O)[C@H](C)NC(=O)[C@H](CC(C)C)NC(=O)[C@H](CC(C)C)NC(=O)[C@H](Cc1c[nH]c2ccccc12)NC(=O)[C@H](CC(N)=O)NC(=O)[C@@H](NC(=O)[C@H](Cc1ccccc1)NC(=O)[C@H](CCC(=O)O)NC(=O)C(C)(C)NC(=O)[C@H](C)NC(=O)[C@H](C)NC(=O)[C@H](CCC(N)=O)NC(=O)[C@H](CCCCN)NC(=O)[C@H](CC(=O)O)NC(=O)[C@H](CC(C)C)NC(=O)[C@H](Cc1ccc(O)cc1)NC(=O)[C@@H](NC(=O)[C@H](CO)NC(=O)[C@H](Cc1ccc(O)cc1)NC(=O)[C@H](CC(=O)O)NC(=O)[C@H](CO)NC(=O)[C@@H](NC(=O)[C@H](Cc1ccccc1)NC(=O)[C@@H](NC(=O)CNC(=O)[C@H](CCC(=O)O)NC(=O)CSCC(=O)NCCN1CC[C@@H](O)CC1=O)[C@@H](C)O)[C@@H](C)O)[C@@H](C)CC)C(C)C)C(N)=O)C(=O)O` (single isomer, unassigned) [Compound 203] showed an Emax [2] of 44%.

With `CCCCCCCCCCCCCCCC(=O)N[C@@H](CCC(=O)NCCCC[C@H](NC(=O)[C@H](CO)NC(=O)[C@@H]1CCCN1C(=O)[C@@H]1CCCN1C(=O)[C@@H]1CCCN1C(=O)[C@H](C)NC(=O)CNC(=O)[C@H](CO)NC(=O)[C@H](CO)NC(=O)[C@@H]1CCCN1C(=O)CNC(=O)CNC(=O)[C@H](C)NC(=O)[C@H](CC(C)C)NC(=O)[C@H](CC(C)C)NC(=O)[C@H](Cc1c[nH]c2ccccc12)NC(=O)[C@H](CC(N)=O)NC(=O)[C@@H](NC(=O)[C@H](Cc1ccccc1)NC(=O)[C@H](CCC(=O)O)NC(=O)C(C)(C)NC(=O)[C@H](C)NC(=O)[C@H](C)NC(=O)[C@H](CCC(N)=O)NC(=O)[C@H](CCCCN)NC(=O)[C@H](CC(=O)O)NC(=O)[C@H](CC(C)C)NC(=O)[C@H](Cc1ccc(O)cc1)NC(=O)[C@@H](NC(=O)[C@H](CO)NC(=O)[C@H](Cc1ccc(O)cc1)NC(=O)[C@H](CC(=O)O)NC(=O)[C@H](CO)NC(=O)[C@@H](NC(=O)[C@H](Cc1ccccc1)NC(=O)[C@@H](NC(=O)CNC(=O)[C@H](CCC(=O)O)NC(=O)CSCC(=O)NCCN1CCC[C@H](C)C1=O)[C@@H](C)O)[C@@H](C)O)[C@@H](C)CC)C(C)C)C(N)=O)C(=O)O` (single isomer, unassigned) [Compound 207] the Emax [2] was 68%.

In the case of `CCCCCCCCCCCCCCCC(=O)N[C@@H](CCC(=O)NCCCC[C@H](NC(=O)[C@H](CO)NC(=O)[C@@H]1CCCN1C(=O)[C@@H]1CCCN1C(=O)[C@@H]1CCCN1C(=O)[C@H](C)NC(=O)CNC(=O)[C@H](CO)NC(=O)[C@H](CO)NC(=O)[C@@H]1CCCN1C(=O)CNC(=O)CNC(=O)[C@H](C)NC(=O)[C@H](CC(C)C)NC(=O)[C@H](CC(C)C)NC(=O)[C@H](Cc1c[nH]c2ccccc12)NC(=O)[C@H](CC(N)=O)NC(=O)[C@@H](NC(=O)[C@H](Cc1ccccc1)NC(=O)[C@H](CCC(=O)O)NC(=O)C(C)(C)NC(=O)[C@H](C)NC(=O)[C@H](C)NC(=O)[C@H](CCC(N)=O)NC(=O)[C@H](CCCCN)NC(=O)[C@H](CC(=O)O)NC(=O)[C@H](CC(C)C)NC(=O)[C@H](Cc1ccc(O)cc1)NC(=O)[C@@H](NC(=O)[C@H](CO)NC(=O)[C@H](Cc1ccc(O)cc1)NC(=O)[C@H](CC(=O)O)NC(=O)[C@H](CO)NC(=O)[C@@H](NC(=O)[C@H](Cc1ccccc1)NC(=O)[C@@H](NC(=O)CNC(=O)[C@H](CCC(=O)O)NC(=O)CSCC(=O)NCCN1CCC[C@@H](C)C1=O)[C@@H](C)O)[C@@H](C)O)[C@@H](C)CC)C(C)C)C(N)=O)C(=O)O` (single isomer, unassigned) [Compound 208], the Emax [2] is reported as 59%.

`CCCCCCCCCCCCCCCC(=O)N[C@@H](CCC(=O)NCCCC[C@H](NC(=O)[C@H](CO)NC(=O)[C@@H]1CCCN1C(=O)[C@@H]1CCCN1C(=O)[C@@H]1CCCN1C(=O)[C@H](C)NC(=O)CNC(=O)[C@H](CO)NC(=O)[C@H](CO)NC(=O)[C@@H]1CCCN1C(=O)CNC(=O)CNC(=O)[C@H](C)NC(=O)[C@H](CC(C)C)NC(=O)[C@H](CC(C)C)NC(=O)[C@H](Cc1c[nH]c2ccccc12)NC(=O)[C@H](CC(N)=O)NC(=O)[C@@H](NC(=O)[C@H](Cc1ccccc1)NC(=O)[C@H](CCC(=O)O)NC(=O)C(C)(C)NC(=O)[C@H](C)NC(=O)[C@H](C)NC(=O)[C@H](CCC(N)=O)NC(=O)[C@H](CCCCN)NC(=O)[C@H](CC(=O)O)NC(=O)[C@H](CC(C)C)NC(=O)[C@H](Cc1ccc(O)cc1)NC(=O)[C@@H](NC(=O)[C@H](CO)NC(=O)[C@H](Cc1ccc(O)cc1)NC(=O)[C@H](CC(=O)O)NC(=O)[C@H](CO)NC(=O)[C@@H](NC(=O)[C@H](Cc1ccccc1)NC(=O)[C@@H](NC(=O)CNC(=O)[C@H](CCC(=O)O)NC(=O)C(=O)NCCN1CCCCC1=O)[C@@H](C)O)[C@@H](C)O)[C@@H](C)CC)C(C)C)C(N)=O)C(=O)O` [Compound 215] showed an Emax ([1]; Table 3A) of 103% and an EC50 [1, 3] of 1 to 10 nM.

With `CCCCCCCCCCCCCCCC(=O)N[C@@H](CCC(=O)NCCCC[C@H](NC(=O)[C@H](CO)NC(=O)[C@@H]1CCCN1C(=O)[C@@H]1CCCN1C(=O)[C@@H]1CCCN1C(=O)[C@H](C)NC(=O)CNC(=O)[C@H](CO)NC(=O)[C@H](CO)NC(=O)[C@@H]1CCCN1C(=O)CNC(=O)CNC(=O)[C@H](C)NC(=O)[C@H](CC(C)C)NC(=O)[C@H](CC(C)C)NC(=O)[C@H](Cc1c[nH]c2ccccc12)NC(=O)[C@H](CC(N)=O)NC(=O)[C@@H](NC(=O)[C@H](Cc1ccccc1)NC(=O)[C@H](CCC(=O)O)NC(=O)C(C)(C)NC(=O)[C@H](C)NC(=O)[C@H](C)NC(=O)[C@H](CCC(N)=O)NC(=O)[C@H](CCCCN)NC(=O)[C@H](CC(=O)O)NC(=O)[C@H](CC(C)C)NC(=O)[C@H](Cc1ccc(O)cc1)NC(=O)[C@@H](NC(=O)[C@H](CO)NC(=O)[C@H](Cc1ccc(O)cc1)NC(=O)[C@H](CC(=O)O)NC(=O)[C@H](CO)NC(=O)[C@@H](NC(=O)[C@H](Cc1ccccc1)NC(=O)[C@@H](NC(=O)CNC(=O)[C@@H](CCc1nn[nH]n1)NC(=O)CSCC(=O)NCCN1CCCCC1=O)[C@@H](C)O)[C@@H](C)O)[C@@H](C)CC)C(C)C)C(N)=O)C(=O)O` [Compound 222] the Emax ([1]; Table 3A) was 99% and the EC50 [1, 3] was 1 to 10 nM.
